How the values were obtained:
[1] = tested on: HIF-1α activation of the HRE-driven reporter; test: Dual luciferase reporter assay (HRE-driven luciferase activity); assay type: cell-based, Human; conditions: HEK293 cells, 8 h
Description: A library of cyclometalated Ir(III)/Rh(III) metal complexes 1-14 (as racemates) with diverse structures were selected for initial screening, in order to identify favorable substructures for the design of the next round of complexes (FIG. 1a). In cells, HIF-1α moves into the nucleus and binds to the hypoxia-response element (HRE) in the promoters of transactivated genes. In this study, the dual luciferase reporter assay (DLR) was performed to monitor the variations of HRE-driven luciferase activity induced by the complexes (FIG. 1f). Human embryonic kidney HEK293 cells were treated with complexes (10 μM) for 8 h, and the HRE-driven luciferase activity of the cell lysates was determined. Complexes that inhibit the interaction between VHL and HIF-1α would be expected to increase the level of HRE-driven luciferase activity in the cell lysates.
HEK293 cells were seeded in six well plates 24 h before transfection. HRE-luciferase plasmid (4 μg) and pRL-TK plasmid (4 μg) and TurboFect reagent (6 μL) were mixed together in serum-free DMEM medium and the resulting solution was incubated for 20 min at room temperature. The mixture was the added dropwise to the HEK293 cells in the wells. The cells were incubated for 32 h at 37° C. in a CO2 incubator before use.
The inhibition of HIF-1α activity was assayed by a reporter assay using a dual luciferase reporter assay system (Promega, Madison, WI, USA). Transiently transfected cells were treated with complexes or P1 for 8 h before measurement. Luciferase activity was integrated over a 10 second period and measured using a spectrophotometer (Spectra-max M5, Molecular Devices, USA). The results were standardization with the activity of Renilla luciferase. All data are expressed as means±SD.

[2] = tested on: oxygen depletion, PHD inhibition, proteasomal inhibition; test: Alternative mechanisms of HIF activation (oxygen depletion, PHD inhibition, proteasomal inhibition)
[3] = Stability in solution (1H NMR, UV/Vis); assay type: physicochemical; conditions: 298 K
Source text: Based on the structure of complex 1, a focused library of 14 cyclometalated Rh(III) and Ir(III) complexes containing different CAN or NAN donor ligands were designed and synthesized (1a-1n) (FIG. 1c). This library was enriched in the brpy CAN and dmeophen N^N ligands that were identified in the first round of screening to be favorable substructures for potency.

[4] = tested on: wound tissue of normal and diabetic mice; test: Wound tissue analysis (H&E, Masson's trichrome, laser doppler, CD31, Western blot, qRT-PCR) in normal and diabetic mice; assay type: in vivo
Source text: (A) Timeline for in vivo experiments. (B) Image of representative wound (left) and wound closure rate (right) (n=5 mice). (C) H&E and Masson's trichrome staining of dorsal skin section and skin thickness from the top of the epidermis to the bottom of the dermis in mice after 8 days post-injury (n=4 mice). Scale bar=200 μm. (D) Laser doppler imager in dorsal skin: representative images were shown for each group (left) and baseline perfusion on back skin of mice (right) after 2 days post-injury (dotted line circle represents the wound bed in mice of each group and arrow represents perfusion intensity (n=5 mice). (E) CD31 and DAPI double staining in wound bed of mice after 8 days post-injury (n=4 mice). Scale bar=50 μm. Data are expressed as means±SD, P values were calculated using a one-way ANOVA with Tukey's multiple comparison test. #P<0.05, ##P<0.01 WT vs. db/db, *P<0.05, **P<0.01 1a vs. vehicle.
(A) Western blot analyses and quantitation of HIF-1α, VEGF, GLUT1, and EPO in wound tissue (n=3 mice). All proteins were normalized by β-actin. (B) The mRNA levels of HIF-1α target genes involved in wound healing were analyzed by qRT-PCR in wound tissues (n=5 mice). Data are expressed as means±SD, P values were calculated using a one-way ANOVA with Tukey's multiple comparison test. P<0.05, P<0.01 WT vs. db/db, *P<0.05, **P<0.01 1a vs. vehicle. S
The epithelial thickness of the regenerated skin in each group was compared using H&E staining and Masson's trichrome staining. […] One of the key processes related to wound healing is tissue angiogenesis.
After electrophoresis of protein samples (30 μg of total protein) on SDS-PAGE gels, the samples were transferred to a PVDF membrane and incubated at room temperature with blocking solution for 1 h. The membrane was treated with primary antibodies and incubated overnight at 4° C. After 1 h incubation with the secondary antibodies (Supplementary Table Sl), protein bands were visualized using ECL Western Blotting Detection Reagent (GE Healthcare).
After fixation in 4% paraformaldehyde, the skin samples were embedded in paraffin and sectioned ([…]). For histological evaluation, sections were deparaffinized and rehydrated followed by hematoxylin and eosin (H&E) and Masson's trichrome staining. For immunohistochemical staining of CD31, the wound tissue sections were deparaffinized and stained with CD31 antibody (1:1000; ABclonal, Cambridge, MA, USA). The slides were examined under ×400 magnification to identify the area with the highest vascular density, and five randomly high-power field areas of the highest microvessel density were selected for each section. The average was calculated as the microvessel density of this sample.

[5] = normal and diabetic mice, 8 days post-injury

## COc1cc[n+]2c3c1ccc1c(OC)cc[n+](c13)[Ir-3]213([c]2ccccc2-c2cccc[n+]21)[c]1ccccc1-c1cccc[n+]13.F[P-](F)(F)(F)(F)F [1a]
[1]
  HRE-driven luciferase activity compared to positive control P1 (and parent complex 1): about twice as potent as both the parent complex 1 as well as the positive control compound P1
[1]; complexes 1a-1n, ranking and comparison in words
  HRE-driven luciferase activity, second round of screening: highest activation of HRE-drive luciferase activity
[1]; indicated concentrations
  Dose-response of HRE-driven luciferase activity: dose-dependent activation of HRE-driven luciferase activity
[2]
  Activation of HIF signaling via oxygen depletion, PHD inhibition and/or proteasomal inhibition: unlikely to activate HIF signaling via oxygen depletion, PHD inhibition, and/or proteasomal inhibition
[3]; 1H NMR spectroscopy
  Stability in [d6]DMSO/D2O (9:1) solution: remarkable stability in a [d6]DMSO/D2O (9:1) solution for at least seven days
[3]; UV/Vis spectroscopy
  Stability in acetonitrile/H2O (9:1) solution: for at least seven days
[4]; WT/NC mice
  HIF-1α target genes in wound tissue, qRT-PCR, WT/NC mice: weaker effects
[4]; WT/NC, db/db, HFD/STZ and STZ groups, 8 days post-wounding, vs vehicle
  Expression of HIF-1α, VEGF, GLUT1 and EPO in wound tissue (Western blotting): significantly increased
[4]; diabetic mice
  HIF-1α target genes (HSP-90, VEGFR-1, SDF-1, SCF, Tie-2) in wound tissue, qRT-PCR, diabetic mice: also increased in the wound tissue of 1a-treated diabetic mice
[4]; normal and diabetic groups, 8 days post-injury
  Microvessel density in wound areas (CD31 immunostaining): significantly enhanced microvessel density
[4]; normal and diabetic mice, 2 days post-injury
  Skin blood flow rate (skin perfusion pressure test): remarkably increased skin blood flow rate
[4]; [5]
  Collagen deposition in wound areas: enhanced collagen deposition in wound areas
  Skin thickness (H&E, Masson's trichrome): increased skin thickness
